Experimental findings from patent publication US8501770B2 (ArQule, Inc., priority 2009, dated 2013) are described below.

pIC50: −log10 of the molar value.

What is called IC50 is the concentration that gives 50% inhibition. By pIC50 is commonly meant the IC50 on a negative log10 scale, so that one unit is a factor of ten.

In the first test the target is Full-length inactive AKT1 (Homo sapiens, UniProt P31749). Kind of test: Inactive Akt Alpha Screen Assay. It is filed as biochemical. As to conditions: AlphaScreen assay (values not marked with *); read-out: Akt1 IC50, (AlphaScreen) (μM) (or if marked with “*” HTRF assay). The procedure: AKT1 activity was assayed using the GSK3-derived biotinylated peptide substrate, crosstide (biotin-[…]), and AlphaScreen™ (Amplified Luminescent Proximity Homogeneous Assay) technology. AKT1 activation was achieved by the addition of the activating kinases PDK1 and MAPKAPK2, lipid vesicles, and ATP. The extent of peptide phosphorylation was determined using a phospho-AKT substrate antibody and acceptor beads conjugated to Protein A and donor beads conjugated to streptavidin that bind to the biotin on the peptide. Excitation of the donor beads converted ambient oxygen to excited singlet oxygen which, when in close proximity to acceptor beads, reacted with acceptor beads resulting in signal amplification.
Sequence of Full-length inactive AKT1 (P31749 whole entry): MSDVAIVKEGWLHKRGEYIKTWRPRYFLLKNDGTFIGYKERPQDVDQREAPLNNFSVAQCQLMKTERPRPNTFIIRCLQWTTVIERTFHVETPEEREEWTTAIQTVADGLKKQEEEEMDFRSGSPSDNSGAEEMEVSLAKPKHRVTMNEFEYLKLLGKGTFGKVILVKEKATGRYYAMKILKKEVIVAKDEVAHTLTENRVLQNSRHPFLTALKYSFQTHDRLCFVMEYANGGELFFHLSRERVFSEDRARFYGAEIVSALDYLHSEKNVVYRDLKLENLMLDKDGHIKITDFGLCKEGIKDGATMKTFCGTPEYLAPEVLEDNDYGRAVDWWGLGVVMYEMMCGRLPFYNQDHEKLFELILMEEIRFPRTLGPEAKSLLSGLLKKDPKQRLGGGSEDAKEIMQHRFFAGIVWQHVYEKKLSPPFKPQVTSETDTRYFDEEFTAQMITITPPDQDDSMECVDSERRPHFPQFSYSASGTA
Assay plates were incubated for 90 minutes at room temperature in the dark, and the plates were read on a Perkin Elmer Envision Multilabel plate reader (excitation wavelength: […], emission wavelength: 570 nm).
(In general: Bead proximity is the source of the signal in Alpha formats.)
`Nc1ncccc1-c1nc2ccc(-c3ccnc(O)c3)nc2n1-c1ccc(C2(N)CCC2)cc1` [Example 448, 4-{3-[4-(1-aminocyclobutyl)phenyl]-2-(2-aminopyridin-3-yl)-3H-imidazo[4,5-b]pyridin-5-yl}pyridin-2-ol]: the IC50 was found to be 0.0039 µM.
For the molecule `Nc1ncccc1-c1nc2ccc(-c3c[nH]c4ccncc34)nc2n1-c1ccc(C2(N)CCC2)cc1` [Example 446, 3-{3-[4-(1-aminocyclobutyl)phenyl]-5-(1H-pyrrolo[3,2-c]pyridin-3-yl)-3H-imidazo[4,5-b]pyridin-2-yl}pyridin-2-amine], the 50% inhibitory concentration (IC50) stood at 0.0089 µM.
On the same count and under the same terms, under `Nc1ncccc1-c1nc2ccc(-c3cccc(N4CCCCCC4)c3)nc2n1-c1ccc(C2(N)CCC2)cc1` [Example 458, 3-{3-[4-(1-aminocyclobutyl)phenyl]-5-(3-azepan-1-ylphenyl)-3H-imidazo[4,5-b]pyridin-2-yl}pyridin-2-amine] stands 0.012 µM.
For the molecule `Nc1ncccc1-c1nc2ccc(-c3cccc(O)c3F)nc2n1-c1ccc(C2(N)CCC2)cc1` [Example 445, 3-{3-[4-(1-aminocyclobutyl)phenyl]-2-(2-aminopyridin-3-yl)-3H-imidazo[4,5-b]pyridin-5-yl}-2-fluorophenol], the IC50 is 0.014 µM.

The test is the same for the next values; noted with them: values not marked with "*": AlphaScreen assay; read-out: Akt1 IC50, (AlphaScreen).
Regarding `CNS(=O)(=O)Cc1ccc(-n2c(-c3cccnc3N)nc3cccnc32)cc1` [Example 13], the negative-log IC50 (pIC50) is 6.29.
Turning to `Cc1cccc(C(=O)NCc2ccc(-n3c(-c4cccnc4N)nc4cccnc43)cc2)c1` [Example 53], the negative-log IC50 (pIC50) is 6.91.
As to `Nc1ncccc1-c1nc2cc(Br)cnc2n1-c1ccc(CNS(=O)(=O)c2ccccc2Cl)cc1` [Example 147, N-{4-[2-(2-aminopyridin-3-yl)-6-bromo-3H-imidazo[4,5-b]pyridin-3-yl]benzyl}-2-chlorobenzenesulfonamide], the pIC50 was 6.36.
As for `Nc1ncccc1-c1nc2cccnc2n1-c1ccc(CNC(=O)c2ccc3c(c2)CCO3)cc1` [Example 64], the pIC50 is 5.95.
On the same count and under the same terms, the figure for `CCCCS(=O)(=O)NCc1ccc(-n2c(-c3cccnc3N)nc3cc(Br)cnc32)cc1` [Example 153, N-{4-[2-(2-aminopyridin-3-yl)-6-bromo-3H-imidazo[4,5-b]pyridin-3-yl]benzyl}butane-1-sulfonamide] is 6.36; for `COc1ccc(C(=O)NCc2ccc(-n3c(-c4cccnc4N)nc4cccnc43)cc2)cc1` [Example 54] it is 6.15.
Take `CC(=O)Nc1ccccc1C(=O)NCc1ccc(-n2c(-c3cccnc3N)nc3cccnc32)cc1` [Example 43]: the negative-log IC50 (pIC50) is 5.85.
In the case of `Cn1c(NC(=O)Cc2ccc(-n3c(-c4cccnc4N)nc4cccnc43)cc2)nc2ccccc21` [Example 114], the pIC50 was 6.24.

The same test, now with this note: values not marked with "*"; read-out: Akt1 IC50, (AlphaScreen).
Consider `Cc1cc2nc(-c3cccnc3N)n(-c3ccc(CNC(=O)c4ccccc4)cc3)c2nc1Cl` [Example 346, N-(4-(2-(2-aminopyridin-3-yl)-5-chloro-6-methyl-3H-imidazo[4,5-b]pyridin-3-yl)benzyl)benzamide], for which the negative-log IC50 (pIC50) was 7.07.
Same read-out and setting: under `Nc1ncccc1-c1nc2ccc(-c3cccnc3)nc2n1-c1ccc(CC(=O)Nc2ccccc2)cc1` [Example 257, 2-(4-(2-(2-aminopyridin-3-yl)-5-(pyridin-3-yl)-3H-imidazo[4,5-b]pyridin-3-yl)phenyl)-N-phenylacetamide] stands 7.34; under `N#Cc1cccc(-c2ccc3nc(-c4cccnc4N)n(-c4ccc(CNC(=O)c5cccc(F)c5)cc4)c3n2)c1` [Example 335, N-(4-(2-(2-aminopyridin-3-yl)-5-(3-cyanophenyl)-3H-imidazo[4,5-b]pyridin-3-yl)benzyl)-3-fluorobenzamide], 6.74.
Regarding `Cc1cnc2c(c1)nc(-c1cccnc1N)n2-c1ccc(CNC(=O)c2cncs2)cc1` [Example 276, N-(4-(2-(2-aminopyridin-3-yl)-6-methyl-3H-imidazo[4,5-b]pyridin-3-yl)benzyl)thiazole-5-carboxamide], the negative-log IC50 (pIC50) is 6.11.
Still for that read-out and setting: under `NC(=O)c1cccc(-c2ccc3nc(-c4cccnc4N)n(-c4ccc(C5(N)CCC5)cc4)c3n2)c1` [Example 365, 3-(3-(4-(1-aminocyclobutyl)phenyl)-2-(2-aminopyridin-3-yl)-3H-imidazo[4,5-b]pyridin-5-yl)benzamide] stands 8.52; under `Nc1ncccc1-c1nc2cc(Br)cnc2n1-c1ccc(CNS(=O)(=O)c2c(F)cccc2F)cc1` [Example 159, N-{4-[2-(2-aminopyridin-3-yl)-6-bromo-3H-imidazo[4,5-b]pyridin-3-yl]benzyl}-2,6-difluorobenzenesulfonamide], 6.70; under `CC(=O)Nc1ccc(NC(=O)Cc2ccc(-n3c(-c4cccnc4N)nc4cc(-c5cccnc5)cnc43)cc2)cc1` [Example 319, N-(4-acetamidophenyl)-2-(4-(2-(2-aminopyridin-3-yl)-6-(pyridin-3-yl)-3H-imidazo[4,5-b]pyridin-3-yl)phenyl)acetamide], 7.66.
Regarding `CC(C)c1ccc(C(=O)NCc2ccc(-n3c(-c4cccnc4N)nc4cc(-c5cccnc5)cnc43)cc2)cc1` [Example 233, N-(4-(2-(2-aminopyridin-3-yl)-6-(pyridin-3-yl)-3H-imidazo[4,5-b]pyridin-3-yl)benzyl)-4-isopropylbenzamide], the negative-log IC50 (pIC50) is 6.85.
On the same count and under the same terms, under `COC(=O)c1ccc(-c2ccc3nc(-c4cccnc4N)n(-c4ccc(CNC(=O)c5cccc(F)c5)cc4)c3n2)cc1` [Example 336, methyl 4-(2-(2-aminopyridin-3-yl)-3-(4-((3-fluorobenzamido)methyl)phenyl)-3H-imidazo[4,5-b]pyridin-5-yl)benzoate] stands 6.49; under `Nc1ncc(Cl)cc1-c1nc2ccc(-c3ccccc3)nc2n1-c1ccc(C2(N)CCC2)cc1` [Example 368, 3-(3-(4-(1-aminocyclobutyl)phenyl)-5-phenyl-3H-imidazo[4,5-b]pyridin-2-yl)-5-chloropyridin-2-amine], 8.00.
Regarding `Nc1ncccc1-c1nc2cc(C(F)(F)F)cnc2n1-c1ccc(CNC(=O)c2cccc(F)c2)cc1` [Example 188, N-{4-[2-(2-aminopyridin-3-yl)-6-(trifluoromethyl)-3H-imidazo[4,5-b]pyridin-3-yl]benzyl}-3-fluorobenzamide], the pIC50 is 6.44.
Still for that read-out and setting: the figure for `Nc1ncccc1-c1nc2ccc(-c3ccncc3)nc2n1-c1ccc(C2(N)CCC2)cc1` [Example 394, 3-(3-(4-(1-aminocyclobutyl)phenyl)-5-(pyridin-4-yl)-3H-imidazo[4,5-b]pyridin-2-yl)pyridin-2-amine] is 8.41; for `Nc1ncccc1-c1nc2ccc(-c3cccc4[nH]ccc34)nc2n1-c1ccc(C2(N)CCC2)cc1` [Example 397, 3-(3-(4-(1-aminocyclobutyl)phenyl)-5-(1H-indol-4-yl)-3H-imidazo[4,5-b]pyridin-2-yl)pyridin-2-amine] it is 8.42.
For the molecule `Cc1cnc2c(c1)nc(-c1cccnc1N)n2-c1ccc(CNC(=O)c2cccnc2F)cc1` [Example 274, N-(4-(2-(2-aminopyridin-3-yl)-6-methyl-3H-imidazo[4,5-b]pyridin-3-yl)benzyl)-2-fluoronicotinamide], the pIC50 is 4.29.
Regarding `Nc1ncccc1-c1nc2cc(-c3cc[nH]c3)cnc2n1-c1ccc(CNC(=O)c2ccccc2)cc1` [Example 237, N-(4-(2-(2-aminopyridin-3-yl)-6-(1H-pyrrol-3-yl)-3H-imidazo[4,5-b]pyridin-3-yl)benzyl)benzamide], the pIC50 was 7.49.
For the molecule `Nc1ncccc1-c1nc2cccnc2n1-c1ccc(C2(N)CCC2)cc1` [Example 415, 3-{3-[4-(1-aminocyclobutyl)phenyl]-3H-imidazo[4,5-b]pyridin-2-yl}pyridin-2-amine], the pIC50 is 7.89.
For `NC(=O)c1ccccc1-c1ccc2nc(-c3cccnc3N)n(-c3ccc(C4(N)CCC4)cc3)c2n1` [Example 384, 2-(3-(4-(1-aminocyclobutyl)phenyl)-2-(2-aminopyridin-3-yl)-3H-imidazo[4,5-b]pyridin-5-yl)benzamide], the pIC50 was 7.43.
Take `Cc1cnc2c(c1)nc(-c1cccnc1N)n2-c1ccc(CNC(=O)c2cc(F)ccc2F)cc1` [Example 283, N-(4-(2-(2-aminopyridin-3-yl)-6-methyl-3H-imidazo[4,5-b]pyridin-3-yl)benzyl)-2,5-difluorobenzamide]: the pIC50 is 6.66.
For `Nc1ncccc1-c1nc2ccc(-c3nccs3)nc2n1-c1ccc(C2(N)CCC2)cc1` [Example 425, 3-{3-[4-(1-aminocyclobutyl)phenyl]-5-(1,3-thiazol-2-yl)-3H-imidazo[4,5-b]pyridin-2-yl}pyridin-2-amine], the pIC50 is 8.00.
Same read-out and setting: the figure for `Cc1ccc2cc(NC(=O)Cc3ccc(-n4c(-c5cccnc5N)nc5ccc(C)nc54)cc3)ccc2n1` [Example 302, 2-(4-(2-(2-aminopyridin-3-yl)-5-methyl-3H-imidazo[4,5-b]pyridin-3-yl)phenyl)-N-(2-methylquinolin-6-yl)acetamide] is 7.11.
For the molecule `CS(=O)(=O)NCc1ccc(-n2c(-c3cccnc3N)nc3cc(-c4cccnc4)cnc32)cc1` [Example 196, N-(4-(2-(2-aminopyridin-3-yl)-6-(pyridin-3-yl)-3H-imidazo[4,5-b]pyridin-3-yl)benzyl)methanesulfonamide], the negative logarithm of the IC50 (pIC50) is 6.85.
As for `Nc1ncccc1-c1nc2ccc(-c3ccc(CO)cc3)nc2n1-c1ccc(CNC(=O)c2ccccc2)cc1` [Example 226, N-(4-(2-(2-aminopyridin-3-yl)-5-(4-(hydroxymethyl)phenyl)-3H-imidazo[4,5-b]pyridin-3-yl)benzyl)benzamide], the negative-log IC50 (pIC50) is 7.74.
